Values of other authors in patent EP0188214A2, “Novel growth hormone-releasing peptides and method of treating mammals therewith” (The Administrators of The Tulane University Educational Fund, priority 1985, dated 1986).
Ends that are not written are not given here.

Tested on: rat anterior pituitary
Conditions: rat anterior pituitary in vitro and in vivo; literature

Substance | growth hormone(GH)-releasing activity
hp GRF(1-29)-NH2: synthetic amidated fragment of the natural hp GRF (YADAIFTNSYRKVLGQLSARKLLQDIMSR-NH2; UniProt P01286 32-60, looked up, fragment) | full intrinsic biological activity
hpGRF: growth hormone-releasing factors (GRF) of human pancreatic islet tumor origin (YADAIFTNSYRKVLGQLSARKLLQDIMSRQQGESNQERGARARL; ends and bridges not checked; UniProt P01286 32-75, looked up) | possess growh hormone(GH)-releasing activity
